Assays:
[1] = biological target: Cyclin-dependent kinase 2 (Homo sapiens, UniProt P24941); test: Inhibition of recombinant CDK2 expressed in baculovirus using […] by 33-P leadseeker assay
[2] = biological target: T1, Glycogen synthase kinase-3 beta (Homo sapiens, UniProt P49841); test: Inhibition of human GSK3-beta expressed in baculovirus by fluorescence polarization assay
[3] = biological target: T1, Glycogen synthase kinase-3 beta; test: Inhibition of human flag-tagged GSK3-beta expressed in HEK-MSRII cells assessed as CRMP-2 phosphorylation by alphaLISA assay; format: cell-based
[4] = biological target: T1, Glycogen synthase kinase-3 beta; test: Inhibition of human full length His-tagged GSK3-beta expressed in baculovirus by alphaLISA assay

T1 sequence (P49841 whole entry): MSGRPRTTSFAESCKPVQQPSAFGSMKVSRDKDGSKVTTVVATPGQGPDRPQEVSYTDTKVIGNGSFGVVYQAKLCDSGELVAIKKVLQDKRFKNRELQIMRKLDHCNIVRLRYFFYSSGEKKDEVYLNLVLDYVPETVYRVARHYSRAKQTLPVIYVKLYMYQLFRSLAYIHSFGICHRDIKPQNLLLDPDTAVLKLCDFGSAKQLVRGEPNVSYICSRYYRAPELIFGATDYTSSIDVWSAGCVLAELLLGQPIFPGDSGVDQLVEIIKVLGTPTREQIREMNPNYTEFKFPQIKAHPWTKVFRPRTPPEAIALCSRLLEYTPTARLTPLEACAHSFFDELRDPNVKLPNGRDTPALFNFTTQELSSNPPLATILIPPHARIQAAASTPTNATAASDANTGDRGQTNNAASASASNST

| Compound | IC50 [1] [nM] | IC50 [2] [nM] | IC50 [3] [nM] | IC50 [4] [nM] |
| --- | --- | --- | --- | --- |
| CN(C)C(=O)c1ccccc1-c1c[nH]c(=O)c2cc(-c3ccncc3)sc12 | > 15800 | 316 | 6310 |  |
| N#Cc1ccc(F)c(-c2c[nH]c(=O)c3cc(-c4ccncc4)sc23)c1 | 200 | 5.01 | 79.4 |  |
| N#CCc1cccc(-c2c[nH]c(=O)c3cc(-c4ccncc4)sc23)c1 | 3980 | 10 | 631 |  |
| Cc1cc(-c2cc3c(=O)[nH]cc(-c4cccc(NS(C)(=O)=O)c4)c3s2)ccn1 |  | 2510 | > 100000 |  |
| COc1cc(F)ccc1-c1c[nH]c(=O)c2cc(-c3ccncc3)sc12 | 5010 | 158 | 5010 |  |
| CS(=O)(=O)Nc1cccc(-c2c[nH]c(=O)c3cc(-c4ccnc5[nH]ccc45)sc23)c1 | 3160 |  | > 100000 | 20 |
| COCc1ccccc1-c1c[nH]c(=O)c2cc(-c3ccncc3)sc12 | 5010 | 100 | 3980 |  |
| O=c1[nH]cc(-c2cccc3cccnc23)c2sc(-c3ccncc3)cc12 | 12600 | 316 | 7940 |  |
| N#Cc1cscc1-c1c[nH]c(=O)c2cc(-c3ccncc3)sc12 | 158 | 12.6 | 316 |  |
| O=c1[nH]cc(-c2cccc(Cl)n2)c2sc(-c3ccncc3)cc12 | > 15800 | 10 | 3980 |  |

The next lines start with the values.

| IC50 [1] [nM] | IC50 [2] [nM] | IC50 [3] [nM] | IC50 [4] [nM] | Compound |
| --- | --- | --- | --- | --- |
| > 15800 |  | > 100000 | 10000 | COc1ncc(-c2ccc(N3CCOCC3)cc2)c2sc(-c3ccncc3)cc12 |
| 15800 | 501 | 1260 | 63.1 | O=c1[nH]cc(-c2ccc(N3CCOCC3)cc2)c2sc(-c3ccncc3)cc12 |
| 6310 | 126 | 3160 |  | CCOc1ccc(-c2c[nH]c(=O)c3cc(-c4ccncc4)sc23)cn1 |
| > 15800 |  | > 100000 | 251 | Cn1cc(-c2ccc(N3CCOCC3)cc2)c2sc(-c3ccncc3)cc2c1=O |
| 1580 | 6.31 | 631 |  | O=c1[nH]cc(-c2ccc3c(c2)OCCO3)c2sc(-c3ccncc3)cc12 |
| 251 |  | 398 | 12.6 | O=c1[nH]cc(-c2ccc(N3CCOCC3)cc2)c2sc(-c3cn[nH]c3)cc12 |
